Literature values, collected in patent publication US11517536B2, “Pharmaceutical composition comprising pomalidomide” (SYNTHON B.V., priority 2016, dated 2022).

solubility: low | solubility in water (drug substance, in water): practically insoluble
Structure (SMILES): Nc1cccc2c1C(=O)N(C1CCC(=O)NC1=O)C2=O (centres unmarked) [Pomalidomide, 4-amino-2-(2,6-dioxopiperidin-3-yl)isoindole-1,3-dione]
